From patent US20240246918A1, “COMPOUNDS AND COMPOSITIONS AS EIF4E INHIBITORS AND THE USES THEREOF” (Ribometrix, Inc., priority 2022, published 2024) come the findings set out here.

Where two headings read alike, the source gives them in different places.

For one assay, the target named is T1, human eIF4E protein (Homo sapiens, UniProt P06730).
T1 construct: purchased Novus NBP-45314
Description: Biochemical competitive binding assay (TR-FRET competition, EDA-m7GDP-ATTO-647N probe). The conditions noted are these: read-out: hEIF4E TR-FRET IC50. The procedure, abridged:
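His-tagged human eIF4E (4 nM) was preincubated with Eu-anti-His antibody (2.5 nM) and added to compound (11-point, 4-fold dilutions) for 15 min. Then 5 nM EDA-m7GDP-ATTO-647N was added for 15 min, in HEPES pH 7.5, 100 mM KCl. The 665/620 TR-FRET ratio was normalized to controls, and IC50 was taken from 4-parameter fits.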

In assay [1] the test system is cap-dependent translation in Flp-In-293 reporter cells. Description: Cellular cap-dependent translation inhibition assay (dual luciferase assay, DLA; Fluc/Rluc ratio, 24 hours). It is filed as cell-based.
Assay [2] concerns COLO 205 colorectal tumor cells. Description: Tumor cell viability inhibition assay (CellTiter-Glo 2.0, 72 hours). It is filed as cell-based. To be noted: COLO 205 cell viability. Summed up:
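COLO 205 cells (1500/well, RPMI-1640 + 10% FBS) exposed for 72 h to an 11-point, 4-fold dilution series; cellular ATP read by CellTiter-Glo 2.0 luminescence. Data normalized to DMSO and maximum-inhibition controls; IC50 from 4-parameter curve fit.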

Where [3] appears, read: read-out: DLA 205 IC50; dual luciferase assay, Flp-In-293 reporter cells, 24 hours, Fluc/Rluc ratio.
The mark [4] stands for this setting: Homo sapiens, Flp-In-293, 24 h, dual luciferase assay, Flp-In-293 reporter cells, 24 hours, Fluc/Rluc ratio; read-out: DLA 205 IC50.
[5] abbreviates: dual luciferase assay, Flp-In-293 reporter cells, 24 hours, Fluc/Rluc ratio; read-out: DLA 205 IC50.

T1 sequence (P06730 whole entry): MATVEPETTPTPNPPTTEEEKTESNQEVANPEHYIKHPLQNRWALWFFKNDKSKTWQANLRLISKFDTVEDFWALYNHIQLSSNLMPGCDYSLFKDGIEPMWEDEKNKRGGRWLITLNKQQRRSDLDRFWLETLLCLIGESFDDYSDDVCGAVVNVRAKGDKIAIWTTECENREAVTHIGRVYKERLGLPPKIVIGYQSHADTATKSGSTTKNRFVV

For the molecule `COC1CCc2nc(C)n(CCOc3ccc(Cl)cc3-c3cc(C)nc4c(C(=O)O)csc34)c(=O)c2C1` (single isomer, unassigned) [Compound 5], the figures for the IC50 (on human eIF4E protein; in assay [1] (setting [3]); in assay [2]) were 0.1 to 0.5 µM, > 5 µM and 5 to 20 µM, respectively.
As for `COC1CCc2nc(C)n(CCOc3ccc(Cl)cc3-c3cc(C)nc4c(C(=O)O)csc34)c(=O)c2C1` (single isomer, unassigned) [Compound 6], the IC50 lay within 0.1 to 0.5 µM on human eIF4E protein, 1 to 5 µM in assay [1] (setting [3]) and 5 to 20 µM in assay [2] (Homo sapiens).
Consider `Cc1nc2c(c(=O)n1CCOc1ccc(Cl)cc1-c1cccc(C(=O)O)c1)CC(N(C)C)CC2` (single isomer, unassigned) [Compound 24], for which the figures for the IC50 (at human eIF4E protein; in assay [1] (setting [4]); in assay [2]) were < 0.1 µM, < 1 µM and 5 to 20 µM, respectively.
On to `Cc1nc2c(c(=O)n1CCOc1ccc(Cl)cc1-c1cccc(C(=O)O)c1)CC(N(C)C)CC2` (single isomer, unassigned) [Compound 25], for which the IC50 at human eIF4E protein was 0.1 to 0.5 µM; in assay [1] (setting [5]), 1 to 5 µM; in assay [2], > 20 µM.
On to `CO[C@@H]1CCN([C@H]2CCc3nc(C)n(CCOc4ccc(Cl)cc4-c4cc(C)nc5c(C(=O)O)csc45)c(=O)c3C2)C1` (single isomer, unassigned) [Compound 43], for which the IC50 at human eIF4E protein was < 0.1 µM; in assay [1] (setting [4]), < 1 µM; in assay [2] (Homo sapiens, COLO 205, 72 h), < 5 µM.
Turning to `CO[C@H]1CCN([C@H]2CCc3nc(C)n(CCOc4ccc(Cl)cc4-c4cc(C)nc5c(C(=O)O)csc45)c(=O)c3C2)C1` (single isomer, unassigned) [Compound 44], the IC50 on human eIF4E protein was < 0.1 µM; in assay [1] (setting [4]) it was < 1 µM; in assay [2] (Homo sapiens, COLO 205, 72 h) it was < 5 µM.
On the same counts, the results for `CO[C@H]1CCN([C@@H]2CCc3nc(C)n(CCOc4ccc(Cl)cc4-c4cc(C)nc5c(C(=O)O)csc45)c(=O)c3C2)C1` (single isomer, unassigned) [Compound 48] are < 0.1 µM, < 1 µM and < 5 µM.
On the same counts, the results for `Cc1cc(-c2cc(Cl)ccc2OCCn2c(C)nc3c(c2=O)CC(N2CC4COCC4C2)CC3)c2scc(C(=O)O)c2n1` (single isomer, unassigned) [Compound 67] are < 0.1 µM, < 1 µM and < 5 µM.
In the case of `Cc1cc(-c2cc(Cl)ccc2OCCn2c(C)nc3c(c2=O)CC(N2CC4COCC4C2)CC3)c2scc(C(=O)NS(C)(=O)=O)c2n1` (single isomer, unassigned) [Compound 89], the IC50 at human eIF4E protein is < 0.1 µM; in assay [1] (setting [5]), < 1 µM; in assay [2], < 5 µM.
For the molecule `Cc1cc(-c2cc(Cl)ccc2OCCn2c(C)nc3c(c2=O)CC(N(C)C2CC(F)(F)C2)CC3)c2scc(C(=O)NS(C)(=O)=O)c2n1` (single isomer, unassigned) [Compound 93], the IC50 on human eIF4E protein was < 0.1 µM; in assay [1] (setting [4]), < 1 µM; in assay [2] (Homo sapiens, COLO 205, 72 h), < 5 µM.
As to `COC1CCN([C@H]2CCc3nc(C)n(CCOc4ccc(Cl)cc4-c4cc(C)nc5c(C(=O)O)csc45)c(=O)c3[C@H]2C)CC1` (stereo in doubt) [Compound 102, 7-(5-chloro-2-(2-(6-(4-methoxypiperidin-1-yl)-2,5-dimethyl-4-oxo-5,6,7,8-tetrahydroquinazolin-3(4H)-yl)ethoxy)phenyl)-5-methylthieno[3,2-b]pyridine-3-carboxylic acid], the IC50 on human eIF4E protein was < 0.1 µM; in assay [2] (Homo sapiens, COLO 205, 72 h) it was 5 to 20 µM.
Take `COC1CCN([C@@H]2CCc3nc(C)n(CCOc4ccc(Cl)cc4-c4cc(C)nc5c(C(=O)O)csc45)c(=O)c3[C@@H]2C)CC1` (stereo in doubt) [Compound 103, 7-(5-chloro-2-(2-(6-(4-methoxypiperidin-1-yl)-2,5-dimethyl-4-oxo-5,6,7,8-tetrahydroquinazolin-3(4H)-yl)ethoxy)phenyl)-5-methylthieno[3,2-b]pyridine-3-carboxylic acid]: the IC50 at human eIF4E protein was < 0.1 µM; in assay [2] (Homo sapiens, COLO 205, 72 h) it was 5 to 20 µM.
For `Cc1cc(-c2cc(Cl)ccc2OCCn2c(C)nc3c(c2=O)C[C@](C)(N2C[C@@H]4CC(F)(F)C[C@@H]4C2)CC3)c2scc(C(=O)O)c2n1` (stereo in doubt) [Compound 566], the IC50 on human eIF4E protein was < 0.1 µM; in assay [2] (Homo sapiens, COLO 205, 72 h), < 5 µM.
On the same counts, the results for `Cc1cc(-c2cc(Cl)ccc2OCCn2c(C)nc3c(c2=O)C[C@@](C)(N2C[C@@H]4CC(F)(F)C[C@@H]4C2)CC3)c2scc(C(=O)O)c2n1` (stereo in doubt) [Compound 567] are < 0.1 µM and < 5 µM.
The like results for `COc1cc(CN(CC(F)F)C2CCc3nc(C)n(CCOc4ccc(Cl)cc4-c4cc(C)nc5c(C(=O)O)csc45)c(=O)c3C2)ccn1` (centres unmarked) [Compound 112, 7-[2-[2-[6-[2,2-bis(fluorenyl)ethyl-[(2-methoxy-4-pyridyl)methyl]amino]-2-methyl-4-oxidanylidene-5,6,7,8-tetrahydroquinazolin-3-yl]ethoxy]-5-chloranyl-phenyl]-5-methyl-thieno[3,2-b]pyridine-3-carboxylic acid] were, in that order, < 0.1 µM and 5 to 20 µM.
As for `COC1CCN(C2(C)CCc3nc(C)n(CCOc4ccc(Cl)cc4-c4cc(C)nc5c(C(=O)O)csc45)c(=O)c3C2)CC1` (centres unmarked) [Compound 114], the IC50 is < 0.1 µM at human eIF4E protein and < 5 µM in assay [2] (Homo sapiens, COLO 205, 72 h).
On to `CCS(=O)(=O)C1CCN(C2CCc3nc(C)n(CCOc4ccc(Cl)cc4-c4cc(C)nc5c(C(=O)O)csc45)c(=O)c3C2)CC1` (centres unmarked) [Compound 115], for which the IC50 was < 0.1 µM on human eIF4E protein and 5 to 20 µM in assay [2] (Homo sapiens, COLO 205, 72 h).
For the molecule `Cc1nc2c(c(=O)n1CCOc1ccc(Cl)cc1-c1ccnc(CC(=O)O)c1)CC(N(C)CC1CC(F)(F)C1)CC2` (centres unmarked) [Compound 118], the IC50 on human eIF4E protein was 0.5 to 5 µM; in assay [2] (Homo sapiens, COLO 205, 72 h), > 20 µM.
The like results for `Cc1cc(-c2cc(Cl)ccc2OCCn2c(C)nc3c(c2=O)CC(N2CC(F)(F)C(F)(F)C2)CC3)c2scc(C(=O)O)c2n1` (centres unmarked) [Compound 119] were, in that order, < 0.1 µM and 5 to 20 µM.
Take `Cc1cc(-c2cc(Cl)ccc2OCCn2c(C)nc3c(c2=O)C(C)(C)C(N)CC3)c2scc(C(=O)O)c2n1` (centres unmarked) [Compound 123, 7-(2-(2-(6-amino-2,5,5-trimethyl-4-oxo-5,6,7,8-tetrahydroquinazolin-3(4H)-yl)ethoxy)-5-chlorophenyl)-5-methylthieno[3,2-b]pyridine-3-carboxylic acid]: the IC50 is 0.5 to 5 µM on human eIF4E protein and > 20 µM in assay [2] (Homo sapiens, COLO 205, 72 h).
On the same counts, the results for `Cc1cc(-c2cc(Cl)ccc2OCCn2c(C)nc3c(c2=O)CC(N2CCC(C(F)F)CC2)CC3)c2scc(C(=O)O)c2n1` (centres unmarked) [Compound 124] are < 0.1 µM and < 5 µM.
As to `[2H]C([2H])([2H])N(Cc1ccnc(OC)c1)C1CCc2nc(C)n(CCOc3ccc(Cl)cc3-c3cc(C)nc4c(C(=O)O)csc34)c(=O)c2C1` (centres unmarked) [Compound 125, 7-(5-chloro-2-(2-(6-(((2-methoxypyridin-4-yl)methyl)(methyl-d3)amino)-2-methyl-4-oxo-5,6,7,8-tetrahydroquinazolin-3(4H)-yl)ethoxy)phenyl)-5-methylthieno[3,2-b]pyridine-3-carboxylic acid], the IC50 on human eIF4E protein was < 0.1 µM; in assay [2] (Homo sapiens, COLO 205, 72 h) it was < 5 µM.
The like results for `Cc1cc(-c2cc(Cl)ccc2OCCn2c(C)nc3c(c2=O)CC(N2C4CCC2CC(F)(F)C4)CC3)c2scc(C(=O)O)c2n1` (centres unmarked) [Compound 126] were, in that order, < 0.1 µM and < 5 µM.
As to `Cc1cc(-c2cc(Cl)ccc2OCCn2c(C)nc3c(c2=O)CC(N2CCC(c4cccc(C(F)(F)F)c4)CC2)CC3)c2scc(C(=O)O)c2n1` (centres unmarked) [Compound 127], the IC50 on human eIF4E protein was < 0.1 µM; in assay [2] (Homo sapiens, COLO 205, 72 h) it was < 5 µM.
The like results for `CCN(Cc1ccnc(OC)c1)C1CCc2nc(C)n(CCOc3ccc(Cl)cc3-c3cc(C)nc4c(C(=O)O)csc34)c(=O)c2C1` (centres unmarked) [Compound 129] were, in that order, < 0.1 µM and < 5 µM.
With `Cc1cc(-c2cc(Cl)ccc2OCCn2c(C)nc3c(c2=O)CC(N2CCC(c4cccs4)CC2)CC3)c2scc(C(=O)O)c2n1` (centres unmarked) [Compound 130], the IC50 at human eIF4E protein was < 0.1 µM; in assay [2] (Homo sapiens, COLO 205, 72 h) it was < 5 µM.
On to `Cc1cc(-c2cc(Cl)ccc2OCCn2c(C)nc3c(c2=O)CC(N2CCC(c4ccc(F)cc4)CC2)CC3)c2scc(C(=O)O)c2n1` (centres unmarked) [Compound 132], for which the IC50 was < 0.1 µM at human eIF4E protein and < 5 µM in assay [2] (Homo sapiens, COLO 205, 72 h).
The like results for `COC1CCN(C2CCc3nc(C)n(CCOc4ccc(Cl)cc4-c4cc(C)nc5c(C(N)=O)csc45)c(=O)c3C2)CC1` (centres unmarked) [Compound 133] were, in that order, 0.1 to 0.5 µM and 5 to 20 µM.
As for `COC1(C)CCN(C2CCc3nc(C)n(CCOc4ccc(Cl)cc4-c4cc(C)nc5c(C(=O)O)csc45)c(=O)c3C2)CC1` (centres unmarked) [Compound 134], the IC50 is < 0.1 µM at human eIF4E protein and < 5 µM in assay [2] (Homo sapiens, COLO 205, 72 h).
The like results for `Cc1cc(-c2cc(Cl)ccc2OCCn2c(C)nc3c(c2=O)CC(N2CCc4nc[nH]c4C2)CC3)c2scc(C(=O)O)c2n1` (centres unmarked) [Compound 155] were, in that order, < 0.1 µM and > 20 µM.
The like results for `Cc1cc(-c2cc(Cl)ccc2OCCn2c(C)nc3c(c2=O)CC(N)CC3)c2scc(C(=O)O)c2n1` (centres unmarked) [Compound 411] were, in that order, < 0.1 µM and < 5 µM.
On the same counts, the results for `Cc1cc(-c2cc(Cl)ccc2OCCn2c(C)nc3c(c2=O)CC(C)(N2CCC(OC(F)(F)F)CC2)CC3)c2scc(C(=O)O)c2n1` (centres unmarked) [Compound 536] are < 0.1 µM and < 5 µM.
